Results: patent US20100311757A1, “Salarins And Tulearins, Compositions And Uses Thereof” (RAMOT AT TEL-AVIV UNIVERSITY LTD., priority 2007, published 2010)

Legend:
UT7 = experiment: MTT colorimetric cell proliferation assay, UT7 cells; assay type: cell-based, human; conditions: for inhibition of cell growth, dose and time dependence: various concentrations, 24, 48 and 72 hours
Protocol: (§1) The anti-cancer activities of the compounds of the invention have been determined in-vitro in human and mouse leukemia cell lines. The procedure was carried out using the colorimetric methyl thiazol tetrazoliumbromide (MTT) assay for measuring cell proliferation (Carmichael et al., (1987), Cancer Res. 47: 936-942).
(§2) The Human leukemia cell lines K562 (Lozzio and Lozzio (1975) Blood, 45, 321-334) and UT7 (Komatsu et al. (1991), Cancer Res. 51, 341-348) were grown in RPMI 1640 and IMDM medium respectively, supplemented with 10% fetal bovine serum (FBS), 2 mM L-glutamine, 100 ug/ml streptomycin and 100 u/ml penicillin. The murine Ba/F3 cell line stably transfected with the erythropoietin receptor (EPO-R) cDNA (D'Andrea et al., (1991), Mol. Cell. Biol. 11, 1980-1987) was cultured in RPMI medium supplemented with recombinant human EPO (rHuEPO, 0.5 U/ml). UT7 cells were cultured in the presence of 2 U/ml rHuEPO. Cells were maintained at 37° C. in a 5% CO2 humidified incubator.
(§3) Cells (4×10^3) were seeded in triplicate into 96-well, flat-bottom culture plates and grown in the presence of the compounds at different concentrations for 24, 48 and 72 hours. Untreated cells served as control. After incubation with the compound, cell growth was determined using the colorimetric methylthiazole tetrazolium bromide (MTT) assay (Mosmann (1983), J Immunol Methods 65, 55-63). Briefly, MTT was added to a final concentration of 5 μg/ml to each well and further incubated for 4 hours at 37° C. After complete solubilization of the dye by acid/alcohol (0.04 N HCl in 2-propanol), plates were read at 570 nm in an ELISA reader, reference 690 nm. Growth of cells exposed to treatment was calculated as the percent of optical density (OD) of the compound-treated cells to that of the non-treated cells.

[1] = test system: Ba/F3 cells expressing the EPO-R; experiment: MTT colorimetric cell proliferation assay, Ba/F3 cells expressing EPO-R; assay type: cell-based, murine
Protocol: as §1, §2, §3

[2] = test system: Ba/F3, K562 and UT7 cell lines; experiment: Cell morphology by phase contrast microscopy; assay type: cell-based, human and mouse; conditions: 0.01 μM or 0.2 μM, over-night
Protocol: Cells were viewed in phase contrast microscopy. The size bar indicates a size of 15 um.
The potential effects of Salarin C on cell proliferation were also tested. Human leukemic cell lines UT-7 and K562, and the murine pro B cell line Ba/F3 which stably expresses the EPO receptor (EPO-R) were used as targets. […] Salarin C at concentrations of 0.0005-0.5 μg/ml was added to the cells for 24 hours, and cell viability was determined by the MTT assay (FIG. 24B). ˜50% inhibition of cell proliferation was obtained at 0.5 μg/ml (1 μM) of Salarin C for the UT-7 cell line and at 0.05 μg/ml (0.1 μM) for the K562 cell line. […] The effect of Salarin C on cell viability was also observed by microscopy (FIG. 25).

K562 = experiment: MTT colorimetric cell proliferation assay, K562 cells; assay type: cell-based, human
Protocol: as §1, §2, §3

[3] = test system: UT-7, K562 and Ba/F3 cell lines; experiment: MTT colorimetric cell proliferation assay, statements across the three cell lines; assay type: cell-based, human and mouse
Protocol: as §1, §2, §3

SMILES | inhibition at 1 µg/mL (UT7; Homo sapiens, UT7 cells, 1 μg/ml, 72 h of exposure) [%] | inhibition of cell growth, dose and time dependence (UT7; UT7 cells) | inhibition at 0.5 µg/mL ([1]; Mus musculus, BaF3, Ba/F3 cells expressing EPO-R, 0.5 ug/ml, 72 h of exposure) [%] | cell viability and morphology by microscopy [2] | inhibition at 1 µM (UT7; Homo sapiens, UT7, UT-7 cells, 0.5 μg/ml (1 μM), 24 hours) [%] | cell viability (UT7; UT-7 cells, 0.5 μg/ml (1 μM), 72 h) | proliferation ([1]; Ba/F3 cells, 0.1 μM, 24 hours) | cell viability ([1]; Ba/F3 cells, 0.5 μg/ml (1 μM), 72 h) | cell viability (K562; 0.5 μg/ml (1 μM), 72 h) | inhibition at 0.1 µM (K562; Homo sapiens, 0.05 μg/ml (0.1 μM), 24 hours) [%] | relative potency ([3]; 0.5 μg/ml, 72 h, three tested cell lines) | anti-proliferative activity, dose dependence ([3]; 0.0005-0.5 μg/ml, 24 hours) | IC50 ([3]; 24 hours, across the tested cell lines, read-out: effective concentration range (IC50)) [nM] | inhibition at 0.5 µg/mL (UT7; Homo sapiens, UT7 cells, 0.5 ug/ml, 72 h of exposure) [%] | inhibition at 0.5 µg/mL (K562; Homo sapiens, 0.5 ug/ml, 72 h of exposure) [%] | inhibition of cell growth, dose and time dependence (K562; various concentrations, 24, 48 and 72 hours)
CCCCCCCC(=O)OCC/C=C/C1OC1C1OC(=O)/C=C\C=C\C(=O)N(C(C)=O)C(=O)/C=C(/C)CCC2OC2C1OC(=O)NC(C)=O (centres unmarked) [Salarin A] | 45 | in a dose and time dependent manner | 48 | – | – | – | – | – | – | – | – | – | – | – | – | –
CCCCCCCC(=O)OCC/C=C/C1OC1C1OC(=O)/C=C\C=C\c2nc(oc2C)/C=C(/C)CCC2OC2C1OC(=O)NC(C)=O (centres unmarked) [Salarin C] | – | – | – | lower viability and characteristics of apoptotic cells | ~50 | abolished nearly all viability | completely arrested | abolished nearly all viability | abolished nearly all viability | ~50 | more potent than Salarins A and B and Tulearin A | dose-dependent | 100 to 1000 | – | – | –
CCCCC/C=C/C(C)=C/C1CC(C)C/C=C/CCC(O)C(OC(N)=O)CCC(C)CC(O)C(C)C(=O)O1 (centres unmarked) [Tulearin A] | – | in a dose and time dependent manner | – | – | – | – | – | – | – | – | – | – | – | 35 | 62 | in a dose and time dependent manner
